# Measurements: ChEMBL document CHEMBL5532750, “Small molecule targeted therapies for endometrial cancer: progress, challenges, and opportunities” (RSC Med Chem, 2024)
# Tests used:
# ECC-1 [1] = assay: Antiproliferative activity against human ECC-1 cells assessed as reduction in cell viability; type: functional, cell-based
# Ishikawa [2] = assay: Antiproliferative activity against human Ishikawa cells assessed as reduction in cell viability; type: functional, cell-based
# Ishikawa [3] = assay: Antiproliferative activity against human Ishikawa cells assessed as combination index incubated for 48 hrs in presence of Metformin by MTT assay; type: functional
# ECC-1 [4] = assay: Antiproliferative activity against human ECC-1 cells assessed as combination index incubated for 48 hrs in presence of Metformin by MTT assay; type: functional
# SPEC-2 [5] = assay: Antiproliferative activity against human SPEC-2 cells assessed as reduction in cell viability incubated for 72 hrs by MTT assay; type: functional, cell-based; conditions: SPEC-2, 72 h
# SPEC-2 [6] = assay: Induction of apoptosis in human SPEC-2 cells assessed as decrease in mitochondrial membrane potential at 5 uM incubated for 8 hrs by JC-1 fluorescent probe based plate reader analysis; type: functional; set-up: scale not given: the % may be the effect or the level left
# USPC-ARK-1 [7] = assay: Induction of cell death in human USPC-ARK-1 cells assessed as increase in ROS level at 5 uM incubated for 24 hrs by DCFH-DA based microplate reader analysis relative to control; type: functional
# USPC-ARK-1 [8] = assay: Induction of apoptosis in human USPC-ARK-1 cells assessed as decrease in mitochondrial membrane potential at 5 uM incubated for 8 hrs by JC-1 fluorescent probe based plate reader analysis; type: functional; set-up: scale not given: the % may be the effect or the level left
# SPEC-2 [9] = assay: Inhibition of cell invasion in serum-starved human SPEC-2 cells at 0.05 to 5 uM incubated for 3.5 hrs by calcein AM staining based plate reader analysis relative to control; type: functional; conditions: dose 0.05-5 µM
# ECC-1 [10] = assay: Antitumor activity against human ECC-1 cells xenografted in LKB1fl/flp53fl/fl mouse assessed as tumor growth inhibition (reference value: 68 %); type: functional
# USPC-ARK-1 [11] = assay: Induction of cell death in human USPC-ARK-1 cells assessed as increase in caspase-9 by measuring fold change using […] as substrate at 5 uM incubated for 24 hrs followed by substrate addition and measured after 30 mins by ELISA analysis; type: functional; conditions: time 1470 min, 24.5 h
# USPC-ARK-1 [12] = assay: Induction of cell death in human USPC-ARK-1 cells assessed as increase in cleaved caspase-3 by measuring fold change using Ac-DEVD-AMC as substrate at 5 uM incubated for 24 hrs followed by substrate addition and measured after 30 mins by ELISA analysis; type: functional; conditions: time 1470 min, 24.5 h
# Ishikawa [13] = assay: Antitumor activity against human Ishikawa cells xenografted in LKB1fl/flp53fl/fl mouse assessed as tumor growth inhibition (reference value: 68 %); type: functional
# SPEC-2 [14] = assay: Induction of cell death in human SPEC-2 cells assessed as increase in ROS level at 5 uM incubated for 24 hrs by DCFH-DA based microplate reader analysis relative to control; type: functional
# SPEC-2 [15] = assay: Induction of cell death in human SPEC-2 cells assessed as increase in cleaved caspase-3 by measuring fold change using Ac-DEVD-AMC as substrate at 5 uM incubated for 24 hrs followed by substrate addition and measured after 30 mins by ELISA analysis; type: functional; conditions: time 1470 min, 24.5 h
# USPC-ARK-1 [16] = assay: Antiproliferative activity against human USPC-ARK-1 cells assessed as reduction in cell viability incubated for 72 hrs by MTT assay; type: functional, cell-based; conditions: USPC-ARK-1, 72 h
# SPEC-2 [17] = assay: Induction of cell death in human SPEC-2 cells assessed as increase in caspase-9 by measuring fold change using […] as substrate at 5 uM incubated for 24 hrs followed by substrate addition and measured after 30 mins by ELISA analysis; type: functional; conditions: time 1470 min, 24.5 h
# USPC-ARK-1 [18] = assay: Inhibition of cell invasion in serum-starved human USPC-ARK-1 cells at 0.05 to 5 uM incubated for 3.5 hrs by calcein AM staining based plate reader analysis relative to control; type: functional; conditions: dose 0.05-5 µM
# Ishikawa [19] = assay: Anticancer activity against human Ishikawa cells assessed as cell mortality rate at 600 uM measured after 48 hrs by MTT assay relative to control; type: functional
# Ishikawa [20] = assay: Anticancer activity against human Ishikawa cells assessed as cell mortality rate at 100 uM measured after 48 hrs by MTT assay relative to control; type: functional
# HEC-1B cell line [21] = assay: Antiproliferative activity against human HEC-1B cell line assessed as reduction in cell viability
# Ishikawa [22] = assay: Antiproliferative activity against human Ishikawa cells assessed as inhibition of VEGF secretion measured after 24 hrs by ELISA assay; type: functional, cell-based
# Ishikawa [23] = assay: Anticancer activity against human Ishikawa cells assessed as cell mortality rate at 100 uM measured after 24 hrs by MTT assay relative to control; type: functional
# Ishikawa [24] = assay: Induction of apoptosis in human Ishikawa cell line assessed as fold change incubated for 48 hrs; type: functional
# RL95-2 = assay: Induction of apoptosis in human RL95-2 cells assessed as fold change incubated for 48 hrs; type: functional
# HEC-1B cell line [25] = assay: Induction of apoptosis in human HEC-1B cell line assessed as fold change incubated for 48 hrs; type: functional
# Ishikawa [26] = assay: Antiproliferative activity against human Ishikawa cells assessed as combination index at 0.5 mM incubated for 48 hrs in presence of paclitaxel by MTT assay; type: functional
# ECC-1 [27] = assay: Antiproliferative activity against human ECC-1 cells assessed as combination index at 0.5 mM incubated for 48 hrs in presence of paclitaxel by MTT assay; type: functional
smiles,measurement,setting,value
CC(=O)O[C@H]1C(=O)[C@@]2(C)[C@H]([C@H](OC(=O)c3ccccc3)[C@]3(O)C[C@H](OC(=O)[C@H](O)[C@@H](NC(=O)c4ccccc4)c4ccccc4)C(C)=C1C3(C)C)[C@]1(OC(C)=O)CO[C@@H]1C[C@@H]2O [PACLITAXEL],IC50,ECC-1 [1],0.0001 µM
same,IC50,Ishikawa [2],0.0005 µM
same,CI,Ishikawa [3],<1
same,CI,ECC-1 [4],<1
O=C1C2=C(CCN(Cc3ccccc3)C2)N2CCN=C2N1Cc1ccc(F)cc1F [ONC-206],IC50,SPEC-2 [5],0.24 µM
same,Activity,SPEC-2 [6],16%
same,Activity,USPC-ARK-1 [7],83%
same,Activity,USPC-ARK-1 [8],16%
same,inhibition (INH),SPEC-2 [9],34%
same,TGI,ECC-1 [10],73%
same,fold change (FC),USPC-ARK-1 [11],1.5
same,fold change (FC),USPC-ARK-1 [12],1.7
same,TGI,Ishikawa [13],73%
same,Activity,SPEC-2 [14],83%
same,fold change (FC),SPEC-2 [15],1.4
same,IC50,USPC-ARK-1 [16],0.33 µM
same,fold change (FC),SPEC-2 [17],1.4
same,inhibition (INH),USPC-ARK-1 [18],26.6%
CC(C)CC(/N=C/c1ccc(B(O)O)cc1)C(=O)O (stereo not drawn),Activity,Ishikawa [19],76%
OB(O)c1ccc(/C=N/c2cccc3cccc(/N=C/c4ccc(B(O)O)cc4)c23)cc1,Activity,Ishikawa [20],72%
OB(O)c1cccc(/C=N/c2ccc(-c3ccc(/N=C/c4cccc(B(O)O)c4)cc3)cc2)c1,Activity,Ishikawa [20],84%
NC(=O)c1cccc2cn(-c3ccc([C@@H]4CCCNC4)cc3)nc12 [NIRAPARIB],IC50,Ishikawa [2],0.024 µM
same,IC50,HEC-1B cell line [21],0.127 µM
CCN(CC)CCCOc1ccc(-n2c3c(c4ccccc4c2=O)C(=O)c2ccccc2-3)cc1,IC50,Ishikawa [22],0.00308 µM
OB(O)c1ccc(/C=N/c2ccc(-c3ccc(/N=C/c4ccc(B(O)O)cc4)cc3)cc2)cc1,Activity,Ishikawa [19],14%
O=c1[nH]cc(F)c(=O)[nH]1 [FLUOROURACIL],IC50,Ishikawa [2],> 100 µM
O=C(O)CSC[C@H](/N=C/c1ccc(B(O)O)cc1)C(=O)O,Activity,Ishikawa [23],54%
same,Activity,Ishikawa [20],49%
O=C(O)CN=C(/N=C/c1ccc(B(O)O)cc1)/N=C/c1ccc(B(O)O)cc1,Activity,Ishikawa [19],18%
CCC(C)(C)C(=O)O[C@H]1C[C@@H](C)C=C2C=C[C@H](C)[C@H](CC[C@@H]3C[C@@H](O)CC(=O)O3)[C@H]21 [SIMVASTATIN],IC50,ECC-1 [1],~15 µM
same,IC50,Ishikawa [2],~17 µM
same,fold change (FC),Ishikawa [24],127
same,fold change (FC),RL95-2,354
same,fold change (FC),HEC-1B cell line [25],88
CN(C)C(=N)NC(=N)N [METFORMIN],CI,Ishikawa [26],<1
same,CI,ECC-1 [27],<1
O=C(O)c1ccc(C(=O)O)c(/N=C/c2ccc(B(O)O)cc2)c1,Activity,Ishikawa [19],72%
CC(C)CC(/N=C/c1cccc(B(O)O)c1)C(=O)O (stereo not drawn),Activity,Ishikawa [19],88.3%
